Data from patent US9908854B2, “Process for synthesizing ergothioneine and related compounds” (University of Cape Town, priority 2014, dated 2018).
“And” between values parts separate entries of the source, which are not always exact repeats. Equal entries are not always repeated. “Also recorded” adds a separate entry of the source.

Experiments:
[1] = test system: crude cell free extracts of Neurospora Crassa; conditions: synthetic sulfoxide of the 1974 prior synthesis; cited from earlier work
[2] = Non enzymatic cleavage of C-S bond catalysed by PLP (LC/MS); conditions: 50 mM substrate plus 50 mM PLP, 20 mM Tris HCl pH=7.4, 37° C., 24 h
Experimental: FIG. 2 Non enzymatic production of ESH catalysed by PLP. TIC extracted for ESH and PLP using S-(β-amino-β-carboxyethyl)ergothioneine sulfide (15), S-(β-amino-β-carboxyethyl)ergothioneine sulfoxide (II) and S-(β-amino-β-carboxyethyl)ergothioneine sulfone (III).
FIG. 3 Non enzymatic production of ESH graph contain; 100 μl reactions containing 20 mM Tris HCl pH=7.4, 20 mM NaCl, 50 mM of either (1) sulfide (15) plus PLP, (2) sulfoxide (II) plus PLP, (3) sulfone (III) plus PLP respectively. Reaction time: 24 h.
Three sets of 100 μl reactions (1-3) containing 20 mM Tris HCl pH=7.4, and 50 mM of either (1) S-(β-amino-β-carboxyethyl)ergothioneine sulfide (15) and PLP (2) S-(β-amino-β-carboxyethyl)ergothioneine sulfoxide (II) and PLP or (3) S-(β-amino-βcarboxyethyl)ergothioneine sulfone (III) and PLP. The non-enzymatic reactions were incubated for 1 day at 37° C., followed by lyophilisation and subsequent reconstitution in LC buffer before analysis by LC/MS (FIGS. 2 and 3).

[3] = test system: crude M. smegmatis enzymes (ESH pathway, EgtE); test: Biotransformation of substrates to ergothioneine using crude M. smegmatis enzymes preparation (LC/MS); assay type: biochemical, Mycobacterium smegmatis; conditions: for concentration of ESH produced: 50 mM substrate, crude M. smegmatis cell free extract, 37° C., pH=7.4, 1 day, LCMS, control (endogenous ESH) 5.70 ng/ml
Experimental: FIG. 1 In vitro reconstitution of ESH; 100 μl reactions containing 20 mM Tris HCl pH=7.4, 20 mM NaCl, 0.2 Mm FeSO4.7H2O, 0.5 mM mercaptoethanol, 83 μl of crude M. smeg enzymes and 50 mM of either (a) S-(β-amino-β-carboxyethyl)ergothioneine sulfide (15); (b) S-(β-amino-β-carboxyethyl)ergothioneine sulfoxide (II) and (c) control. The crude enzyme reactions were incubated for 1 day at 37° C. followed by analysis by LC/MS.
The enzymatic and non-enzymatic PLP mediated synthesis of ESH from the synthetic sulfoxide (II) was compared. To this end, crude M. smegmatis cell free extracts were isolated from cultures grown and harvested at the late exponential phase, characterised by high enzymatic activity.^10
The crude enzymatic transformation of the ESH biosynthetic pathway precursors, including sulfide and sulfoxide variants were evaluated by the concomitant production of ESH in excess of basal levels as determined by LCMS. ESH precursor metabolites (β-amino-β-carboxyethyl)ergothioneine sulfide (15) and (β-amino-β-carboxyethyl)ergothioneine sulfoxide (II) were incubated with the crude cell free extract at 37° C., pH=7.4 for 1 day, and analyzed by LCMS.
The control reaction containing only the crude M. smegmatis cell free extract was also treated under the same conditions as the metabolites. The concentration of ESH thus obtained was 5.70 (±0.30) ng/ml, which was equated to that of endogenous ESH. This concentration was above the limit of detection (0.78 ng/ml), thus any increase in the concentration of ESH in the experiment above 1 ng/ml is considered significant enough to be ascribed to basal levels or biotransformation of the respective substrates by the crude endogenous enzymes of the ESH pathway. […]

| SMILES | cleavage to ESH by crude cell free extracts [1] | formation of ESH (non-enzymatic, PLP) [2] | concentration of ESH produced [3] [ng/mL] | stability to Egt E enzyme mediated C-S cleavage [3] |
| --- | --- | --- | --- | --- |
| C[N+](C)(C)[C@@H](Cc1c[nH]c([S+]([O-])C[C@H](N)C(=O)O)n1)C(=O)O (stereo partly shown) [II] | extensively cleaved to ESH | no ESH at all; also recorded: did not produce ESH at all | 22.6 |  |
| C[N+](C)(C)[C@@H](Cc1c[nH]c(S(=O)(=O)C[C@H](N)C(=O)O)n1)C(=O)O [III] |  | did not produce ESH at all |  | stable |
| C[N+](C)(C)[C@@H](Cc1c[nH]c(SC[C@H](N)C(=O)O)n1)C(=O)O [compound 15, S-(β-amino-β-carboxyethyl)ergothioneine sulfide] |  | 96.3 ng/mL and 96.34 ng/mL | 19.2 |  |
